Experiment [1] deals with T1, MED23-IRF7 PPI (Homo sapiens, UniProt Q9ULK4).
T1 construct: co-immunoprecipitation of IRF7, probably endogenous
In words: immunoprecipitation, MED23-IRF7 PPI. The class given is cell-based. Here is the method: NCI-N87 cells from a gastric cancer cell line were seeded in a 100 mm cell culture dish and cultured until they reached 60-70% confluence. The cultured cells were transfected with p3Xflag-myc-CMV26-empty or p3Xflag-myc-CMV26-MED23^WT plasmids using Lipofectamine® 2000 (Invitrogen, USA). After transfection, YK1 (5 μM) was added 12 hours post-transfection, and the cells were cultured for 12 hours. A total of 750 μg of cell lysate was incubated with 20 μL of FLAG-agarose bead slurry (Sigma Aldrich, USA) on a rotator at 4 °C for 4 hours. The sample was centrifuged at 12,000 rpm for 1 minute to precipitate the beads. After removing the supernatant, the remaining beads were washed three times with 200 μL of lysis buffer (RIPA).
After removing the final supernatant, the beads were eluted by boiling with 2× sample buffer at 98 °C for 5 minutes. The immunoprecipitated proteins were loaded, separated by SDS-PAGE, and analyzed by Western blotting.

For experiment [2], the system named is NCI-N87 xenograft. The experiment can be described thus: NCI-N87 xenograft, tumor growth. The class given is in vivo, mice. The following applies: 4 mg/kg, intravenous, six times at 3-day intervals. Here is the method:
Xenograft mice were generated to evaluate the anticancer effects of the candidate compound. NCI-N87 and JIMT-1 cells (5×10^6 cells), dissolved in 100 μL of 1× phosphate-buffered saline (PBS), were subcutaneously injected into the right flanks of 5-week-old female athymic nude mice (Envigo, USA) or 4-week-old female NOD-SCID mice (Koatech, South Korea). When the tumors reached a volume of 90-100 mm^3, the mice were randomized into designated groups. For the NCI-N87 xenograft, intravenous administration was performed six times at 3-day intervals. For the JIMT-1 xenograft, intraperitoneal administration was performed eight times at 3-day intervals. […] Tumor size changes were monitored until the mean tumor size in the control group reached 2,000-2,500 mm^3. On day 28 for the NCI-N87 xenograft and day 46 for the JIMT-1 xenograft, the mice were sacrificed, and tumors were excised to determine relative tumor sizes. Tumor length (L) and width (W) were measured with calipers, and tumor volume was calculated using the formula: […]

Experiment [3] has as its target MED23 wild-type (FLAG-tagged) (Homo sapiens, UniProt Q9ULK4). In words: LC-MS/MS protein-small molecule interaction, wild-type MED23. The class given is binding. The conditions noted are these: FLAG pulldown, LC-MS/MS. Here is the method: (§1) HEK293 cells were seeded in a […] and incubated until they reached 70-80% confluency. The cells were transfected with p3Xflag-myc-CMV26-MED23^WT and p3Xflag-myc-CMV26-MED23^D400A/H449G plasmids for 24 hours, followed by lysis to obtain protein extracts. To isolate the candidate compound (YK1) bound to MED23, total lysates were incubated with YK1 for 4 hours and subsequently subjected to pulldown using FLAG-agarose beads (Sigma Aldrich, USA). The precipitated beads were washed at least three times to completely remove unbound compounds. To separate the candidate compound from the precipitated MED23, 50 μL of the sample was extracted with 1 mL of acetonitrile and centrifuged at 13,000 rpm at 4 °C for 10 minutes. The supernatant (1,000 μL) from each sample was transferred to a new tube and dried under nitrogen gas at 37 °C. For YK1 analysis, the residue was dissolved in 50 μL of ACN and vortexed for 10 minutes. […] The mixture was then extracted with 450 μL of ACN by ultrasonic treatment and vortex mixing. The candidate compound bound to MED23 was finally analyzed using an Agilent 6460 triple quadrupole mass spectrometer (Agilent Technologies, USA).

The target in experiment [4] is Nluc-ELF3 / Cluc-MED23391-462 (Homo sapiens, UniProt Q9ULK4). The experiment can be described thus: split luciferase biosensor assay. The class given is cell-based. The conditions noted are these: dose-dependent. The procedure: The biosensor used for the assay was prepared using the In-Fusion® HD Cloning Kit with firefly (Photinus pyralis) luciferase. The luciferase enzyme was split into two fragments (Nluc and Cluc). The full-length ELF3 (wild-type) and MED23 mutants were cloned into the […] and KpnI sites, and the NotI and KpnI sites of p3Xflag-myc-CMV26, respectively. The full-length cDNA of human ELF3 (accession number NM_001114309.1) was fused to the N-terminal fragment of split luciferase (Nluc), while the […] of MED23 (accession number NM_001270521.1) was fused to the C-terminal of split luciferase (Cluc).
Nluc-ELF3 / Cluc-MED23391-462, sequence (Q9ULK4 391-462): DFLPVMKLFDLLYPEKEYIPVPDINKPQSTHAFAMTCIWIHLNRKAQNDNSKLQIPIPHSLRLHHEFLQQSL
Bioluminescence intensity, complementarily generated by ELF3-MED23 binding, was measured using this method (FIG. 3B).

Experiment [5] addresses T2, MED23^D400A/H449G (Homo sapiens, UniProt Q9ULK4, D400A/H449G).
T2 construct: FLAG pulldown, LC-MS/MS
The experiment can be described thus: LC-MS/MS protein-small molecule interaction, double mutant. The experiment is classed as binding. The conditions noted are these: FLAG pulldown. Here is the method: as §1

Experiment [6] deals with NCI-N87 cells. In words: apoptosis analysis (Annexin V, FACS). The experiment is classed as cell-based. The following applies: dose-dependent. Here is the method: Specifically, 5×10^5 NCI-N87 cells were seeded in 60 mm dishes and cultured until they reached 70-80% confluence. The cells were treated with varying concentrations of the candidate compound and cultured for 8 hours. The cells were treated with trypsin and then washed with cold PBS (pH 7.4). For cell cycle analysis, the cells were fixed with 70% ethanol and cultured at 4 °C for 30 minutes, followed by staining with FxCycle™ PI/RNase staining solution (Invitrogen™, USA). Cell cycle analysis was performed using a fluorescence-activated cell sorting (FACS) device (BD Biosciences, USA).
Cells for apoptosis analysis were prepared using the same method as described for the cell cycle analysis. The cells were treated with trypsin, washed with 1×PBS, and resuspended in each sample using the FITC Annexin V Apoptosis Detection Kit I (BD Pharmingen™). Apoptosis was analyzed using a FACS device.

The target of experiment [7] is ErbB2 (Homo sapiens, UniProt P04626). In words: kinase profiling, ErbB2. The class given is biochemical. The following applies: read-out: In vitro kinase inhibitory activity (%). The procedure:
(§2) Kinase inhibitory activity of the candidate compound at 10 μM and 25 μM was assessed using Eurofins Kinase Profiling Services. Inhibitory effects on c-RAF, EGFR, ErbB2, ErbB4, and PI3 kinase were analyzed according to the Kinase Profiler Service Assay protocol.

The target of experiment [8] is PI3 Kinase (p110a/p85a) (Homo sapiens, UniProt P42336). In words: kinase profiling, PI3 kinase. The class given is biochemical. The following applies: read-out: In vitro kinase inhibitory activity (%). Here is the method: as §2
PI3 Kinase (p110a/p85a), sequence (P42336 whole entry): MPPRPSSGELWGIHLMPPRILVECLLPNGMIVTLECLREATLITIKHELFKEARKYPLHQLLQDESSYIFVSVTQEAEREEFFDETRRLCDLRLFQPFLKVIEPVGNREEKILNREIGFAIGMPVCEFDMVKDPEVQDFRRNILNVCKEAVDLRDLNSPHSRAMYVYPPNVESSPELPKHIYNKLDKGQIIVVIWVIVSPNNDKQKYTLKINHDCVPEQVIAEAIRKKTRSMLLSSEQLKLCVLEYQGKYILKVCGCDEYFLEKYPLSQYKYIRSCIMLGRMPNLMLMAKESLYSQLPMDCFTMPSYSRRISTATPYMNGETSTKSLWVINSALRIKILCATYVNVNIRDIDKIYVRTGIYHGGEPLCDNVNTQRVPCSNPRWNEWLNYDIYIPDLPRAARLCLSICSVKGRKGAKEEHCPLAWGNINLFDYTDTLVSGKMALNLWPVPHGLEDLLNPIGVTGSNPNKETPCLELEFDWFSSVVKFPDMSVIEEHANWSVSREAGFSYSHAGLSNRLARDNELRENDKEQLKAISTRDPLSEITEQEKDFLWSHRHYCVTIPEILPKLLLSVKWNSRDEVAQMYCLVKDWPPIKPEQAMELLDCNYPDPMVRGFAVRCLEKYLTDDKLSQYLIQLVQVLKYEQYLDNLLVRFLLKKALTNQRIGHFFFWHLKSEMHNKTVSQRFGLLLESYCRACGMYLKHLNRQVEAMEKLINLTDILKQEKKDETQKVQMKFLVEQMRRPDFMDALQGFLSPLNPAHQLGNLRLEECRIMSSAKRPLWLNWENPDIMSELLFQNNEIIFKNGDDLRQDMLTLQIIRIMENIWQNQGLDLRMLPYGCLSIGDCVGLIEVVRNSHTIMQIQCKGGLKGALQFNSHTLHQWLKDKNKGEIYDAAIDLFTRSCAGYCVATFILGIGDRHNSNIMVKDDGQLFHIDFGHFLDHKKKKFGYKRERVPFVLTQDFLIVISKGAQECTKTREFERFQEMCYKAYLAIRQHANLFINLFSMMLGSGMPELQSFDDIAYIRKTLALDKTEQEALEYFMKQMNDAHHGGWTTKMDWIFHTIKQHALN
PI3 Kinase (p110a/p85a), sequence (P27986 whole entry partner): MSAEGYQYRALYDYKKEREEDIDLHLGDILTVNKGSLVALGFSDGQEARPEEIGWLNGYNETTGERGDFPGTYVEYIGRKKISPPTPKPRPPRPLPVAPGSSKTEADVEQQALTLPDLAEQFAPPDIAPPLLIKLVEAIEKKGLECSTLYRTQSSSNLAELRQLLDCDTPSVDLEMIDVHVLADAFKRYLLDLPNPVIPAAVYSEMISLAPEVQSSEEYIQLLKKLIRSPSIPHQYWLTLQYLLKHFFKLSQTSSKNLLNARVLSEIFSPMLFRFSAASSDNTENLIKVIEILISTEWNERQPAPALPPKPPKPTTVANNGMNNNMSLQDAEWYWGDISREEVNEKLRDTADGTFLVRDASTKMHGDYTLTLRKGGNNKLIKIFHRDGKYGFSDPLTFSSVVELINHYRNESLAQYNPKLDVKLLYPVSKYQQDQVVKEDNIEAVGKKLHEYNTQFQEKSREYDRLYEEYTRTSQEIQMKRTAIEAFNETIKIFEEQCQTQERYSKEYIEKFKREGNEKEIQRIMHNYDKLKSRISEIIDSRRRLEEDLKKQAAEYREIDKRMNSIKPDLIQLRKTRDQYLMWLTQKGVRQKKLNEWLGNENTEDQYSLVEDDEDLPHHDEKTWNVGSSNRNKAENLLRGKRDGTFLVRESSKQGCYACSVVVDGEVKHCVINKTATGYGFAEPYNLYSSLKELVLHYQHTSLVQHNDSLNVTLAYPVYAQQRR
Experiment [9] deals with c-RAF (Homo sapiens, UniProt P04049). In words: kinase profiling, c-RAF. The experiment is classed as biochemical. The conditions noted are these: read-out: In vitro kinase inhibitory activity (%). Here is the method:
as §2

Molecules are shown by their SMILES.

c-RAF, sequence (P04049 whole entry): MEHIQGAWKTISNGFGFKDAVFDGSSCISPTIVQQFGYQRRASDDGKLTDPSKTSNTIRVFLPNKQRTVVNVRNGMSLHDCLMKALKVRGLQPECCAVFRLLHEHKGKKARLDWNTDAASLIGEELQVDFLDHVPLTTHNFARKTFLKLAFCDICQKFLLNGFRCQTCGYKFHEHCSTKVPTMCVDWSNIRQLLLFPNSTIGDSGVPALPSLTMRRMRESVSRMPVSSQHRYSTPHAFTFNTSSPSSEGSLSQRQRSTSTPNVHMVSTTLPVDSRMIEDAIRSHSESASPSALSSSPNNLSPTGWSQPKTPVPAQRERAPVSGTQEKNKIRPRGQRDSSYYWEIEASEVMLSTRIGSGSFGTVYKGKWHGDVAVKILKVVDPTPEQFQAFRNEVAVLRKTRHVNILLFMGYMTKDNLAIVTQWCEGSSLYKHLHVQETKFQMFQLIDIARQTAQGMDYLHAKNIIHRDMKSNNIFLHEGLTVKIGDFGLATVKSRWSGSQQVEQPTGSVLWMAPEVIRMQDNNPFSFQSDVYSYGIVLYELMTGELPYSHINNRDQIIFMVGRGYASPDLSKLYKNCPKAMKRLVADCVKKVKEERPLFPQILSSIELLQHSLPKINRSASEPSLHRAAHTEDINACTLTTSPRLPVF
ErbB2, sequence (P04626 676-1255 limits assumed): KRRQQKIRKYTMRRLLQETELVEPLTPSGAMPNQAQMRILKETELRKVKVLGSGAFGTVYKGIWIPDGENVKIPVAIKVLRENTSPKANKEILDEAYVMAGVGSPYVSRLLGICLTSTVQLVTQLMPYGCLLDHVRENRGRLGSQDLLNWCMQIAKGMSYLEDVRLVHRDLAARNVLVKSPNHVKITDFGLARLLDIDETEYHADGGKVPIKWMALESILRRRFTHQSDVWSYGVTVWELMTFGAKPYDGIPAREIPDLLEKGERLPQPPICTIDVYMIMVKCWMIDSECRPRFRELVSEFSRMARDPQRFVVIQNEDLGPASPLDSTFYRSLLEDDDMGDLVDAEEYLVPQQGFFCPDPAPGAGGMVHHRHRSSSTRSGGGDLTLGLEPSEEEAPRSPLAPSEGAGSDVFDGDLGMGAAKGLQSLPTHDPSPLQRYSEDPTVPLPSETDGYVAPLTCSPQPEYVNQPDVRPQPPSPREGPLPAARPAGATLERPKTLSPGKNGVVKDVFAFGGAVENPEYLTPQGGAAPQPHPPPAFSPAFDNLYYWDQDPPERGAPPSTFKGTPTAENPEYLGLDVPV
MED23 wild-type (FLAG-tagged), sequence (Q9ULK4 whole entry): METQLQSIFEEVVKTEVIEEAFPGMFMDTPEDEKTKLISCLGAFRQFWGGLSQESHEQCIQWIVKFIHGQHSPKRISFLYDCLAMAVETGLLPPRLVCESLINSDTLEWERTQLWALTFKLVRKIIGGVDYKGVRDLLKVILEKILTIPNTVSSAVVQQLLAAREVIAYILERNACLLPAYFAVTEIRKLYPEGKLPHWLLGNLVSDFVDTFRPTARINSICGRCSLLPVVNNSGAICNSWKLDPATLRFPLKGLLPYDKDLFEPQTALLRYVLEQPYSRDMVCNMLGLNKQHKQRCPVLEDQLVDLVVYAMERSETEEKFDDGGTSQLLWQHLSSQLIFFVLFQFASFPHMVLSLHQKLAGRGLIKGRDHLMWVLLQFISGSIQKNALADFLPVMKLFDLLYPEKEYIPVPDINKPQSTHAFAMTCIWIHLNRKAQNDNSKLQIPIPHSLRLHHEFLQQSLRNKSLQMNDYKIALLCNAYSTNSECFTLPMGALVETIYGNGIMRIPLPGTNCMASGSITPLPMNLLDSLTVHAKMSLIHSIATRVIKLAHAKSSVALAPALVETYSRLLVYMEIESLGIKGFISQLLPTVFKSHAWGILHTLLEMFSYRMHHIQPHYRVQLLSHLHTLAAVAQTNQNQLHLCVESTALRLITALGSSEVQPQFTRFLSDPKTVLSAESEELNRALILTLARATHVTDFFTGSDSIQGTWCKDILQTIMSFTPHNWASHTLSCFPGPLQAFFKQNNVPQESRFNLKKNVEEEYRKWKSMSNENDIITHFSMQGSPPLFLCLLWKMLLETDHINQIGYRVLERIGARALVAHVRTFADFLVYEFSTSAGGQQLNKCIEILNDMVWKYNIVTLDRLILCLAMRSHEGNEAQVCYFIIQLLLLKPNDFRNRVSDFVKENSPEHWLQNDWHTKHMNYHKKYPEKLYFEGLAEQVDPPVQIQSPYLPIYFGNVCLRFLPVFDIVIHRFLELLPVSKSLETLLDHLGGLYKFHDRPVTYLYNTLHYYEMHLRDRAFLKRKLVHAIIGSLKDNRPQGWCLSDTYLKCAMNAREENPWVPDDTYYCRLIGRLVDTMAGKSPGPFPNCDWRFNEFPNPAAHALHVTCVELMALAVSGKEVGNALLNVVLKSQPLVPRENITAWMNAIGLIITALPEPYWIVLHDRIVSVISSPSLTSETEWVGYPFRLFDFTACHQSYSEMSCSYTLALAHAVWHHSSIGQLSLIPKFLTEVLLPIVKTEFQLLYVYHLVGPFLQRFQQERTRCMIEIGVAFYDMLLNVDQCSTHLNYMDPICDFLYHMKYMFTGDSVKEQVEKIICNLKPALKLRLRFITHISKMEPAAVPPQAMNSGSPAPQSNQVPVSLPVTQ
T1 sequence (Q9ULK4 whole entry): as above
T2 sequence (Q9ULK4 whole entry D400A/H449G): as the sequence (Q9ULK4 whole entry) above, with D400A, H449G counted along it

`CC(=O)N1N=C(c2cccc(O)c2)CC1c1ccc(Cl)cc1` (stereo not drawn) [Compound 15, 1-[5-(4-Chlorophenyl)-3-(3-hydroxyphenyl)-4,5-dihydropyrazol-1-yl]-ethanone]: the “PPI inhibitory effect on MED23-IRF7” value in [1] was “did not inhibit these PPIs”. Moreover, in experiment [2], the “tumor volume / growth” value is “tumor volume was significantly reduced, and tumor growth was delayed”. The “binding to wild-type MED23” value in experiment [3] is “able to bind to wild-type MED23”. In experiment [4], the luciferase activity result is “dose-dependently and significantly reduced”. Moreover, the “binding to double mutant MED23” value in experiment [5] was “unable to bind to the double mutant MED23^D400A/H449G”. The apoptosis result in [6] is “significantly promoted apoptosis in a dose-dependent manner”. In addition, the inhibition at 10 µM is 2% in experiment [7] (ErbB2, 10 μM); 3% in [8] (10 μM); 3% in experiment [9] (10 μM). Besides, the inhibition at 25 µM in experiment [7] (ErbB2, 25 μM) worked out at 0%; in [8] (25 μM), 17%; in [9] (25 μM), 10%.

The values above are taken from US20260373119A1, “NOVEL COMPOUND, AND COMPOSITION FOR PREVENTING OR TREATING HER2-POSITIVE CANCER, COMPRISING SAME” (EWHA UNIVERSITY - INDUSTRY COLLABORATION FOUNDATION, priority 2022, published 2026).
